These results are taken from patent US9862726B2, “Opioid receptor modulating oxabicyclo[2.2.2]octane morphinans” (PURDUE PHARMA L.P., priority 2013, dated 2018).

Assay [1] concerns the target T1, μ-opioid receptor (Homo sapiens (Human), UniProt P35372). Briefly: μ-opioid receptor radioligand dose-displacement binding assay (HEK-293 cells).
For assay [2], the target named is recombinant human kappa opioid receptor (κ) (Homo sapiens (Human), UniProt P41145). Briefly: κ-opioid receptor radioligand dose-displacement binding assay (HEK-293 cells).
The target in assay [3] is T1, μ-opioid receptor. In words: μ-opioid receptor [35S]GTPγS functional assay (HEK-293 cells). It is filed as biochemical. The conditions noted are these: for Emax: HEK-293 cells, relative to DAMGO. (In general: Binding of GTPγS marks nucleotide exchange on a G protein.)
Assay [4] concerns the target T2, κ-opioid receptor (Homo sapiens (Human), UniProt P41145). In words: κ-opioid receptor [35S]GTPγS functional assay (HEK-293 cells). As to conditions: for Emax: HEK-293 cells, relative to U69,593. Type of assay: biochemical. The method, then:
Functional [^35S]GTPγS binding assays were conducted as follows. κ opioid receptor membrane solution was prepared by sequentially adding final concentrations of 0.026 μg/μl κ membrane protein (in-house), 10 μg/mL saponin, 3 μM GDP and 0.20 nM [^35S]GTPγS to binding buffer (100 mM NaCl, 10 mM MgCl2, 20 mM HEPES, pH 7.4) on ice. The prepared membrane solution (190 μl/well) was transferred to 96-shallow well polypropylene plates containing 10 μl of 20× concentrated stock solutions of agonist prepared in DMSO. Plates were incubated for 30 min at a temperature of about 25° C. with shaking. Reactions were terminated by rapid filtration onto 96-well Unifilter GF/B filter plates (Perkin Elmer, Shelton, Conn.) using a 96-well tissue harvester (Packard) and followed by three filtration washes with 200 μl ice-cold binding buffer (10 mM NaH2PO4, 10 mM Na2HPO4, pH 7.4). Filter plates were subsequently dried at 50° C. for 2-3 hours. Fifty μl/well scintillation cocktail (Perkin Elmer, Shelton, Conn.) was added and plates were counted in a Packard Top-Count for 1 min/well.
κ GTP EC50 is the concentration of a compound providing 50% of the maximal response for the compound at a κ receptor.
κ GTP Emax (%) is the maximal effect elicited by a compound relative to the effect elicited by U69,593.
In TABLE 4, activity response of certain Compounds of the Invention to the μ- and κ-opioid receptors was determined as described above for functional assays using HEK-293 cells.

Assay [5] deals with T1, μ-opioid receptor. In words: μ-opioid receptor functional assay (U-2 OS cells). It is filed as biochemical. The conditions noted are these: for Emax: U-2 OS cells, relative to DAMGO.
The target in assay [6] is T2, κ-opioid receptor. In words: κ-opioid receptor functional assay (U-2 OS cells). Type of assay: biochemical. The conditions noted are these: for Emax: U-2 OS cells, relative to U69,593.

For orientation: Ki means a measure of affinity in units of concentration, obtained from inhibition or displacement. The EC50 is the concentration needed to bring the measured effect to its halfway point. A high value points to a less potent agent. For orientation: Emax means the size of the effect at its maximum, as opposed to the concentration needed. Turning to `COc1ccc2c(c1)[C@]13CCN(CC4CC4)[C@H](C2)[C@]12CC[C@@](NC(=O)C(C)(C)C)(CO2)C3` [Compound 21, N-((4bR,6S,8aS,9R)-11-(cyclopropylmethyl)-3-methoxy-5,6,7,8,9,10-hexahydro-9,4b-(epiminoethano)-8a,6-(epoxymethano)phenanthren-6-yl)pivalamide], the Ki at μ-opioid receptor [1] turned out to be 265 ± 77.5 nM; in assay [2] it was 0.33 ± 0.023 nM. The EC50 was found to be 359 ± 128 nM at μ-opioid receptor [3], 3.25 ± 0.37 nM at κ-opioid receptor [4], 86.8 ± 2.57 nM on μ-opioid receptor [5] and 1.12 ± 0.056 nM on κ-opioid receptor [6]. In addition, the Emax amounted to 35 ± 4.04% at μ-opioid receptor [3], 97.3 ± 1.33% at κ-opioid receptor [4], 92.7 ± 2.91% on μ-opioid receptor [5] and 111 ± 3.28% on κ-opioid receptor [6].

Consider `O=C(N[C@]12CC[C@@]3(OC1)[C@H]1Cc4ccc(O)cc4[C@@]3(CCN1CC1CC1)C2)c1ccccc1` [Compound 27, N-((4bR,6S,8aS,9R)-11-(cyclopropylmethyl)-3-hydroxy-5,6,7,8,9,10-hexahydro-9,4b-(epiminoethano)-8a,6-(epoxymethano)phenanthren-6-yl)benzamide], for which the Ki on μ-opioid receptor [1] worked out at 0.019 ± 0.01 nM; in assay [2] it was 0.062 ± 0.012 nM. Further, the EC50 stood at 0.58 ± 0.18 nM on μ-opioid receptor [3], 0.14 nM on κ-opioid receptor [4], 0.037 ± 0.01 nM at μ-opioid receptor [5] and 0.028 nM on κ-opioid receptor [6]. Also, the Emax on μ-opioid receptor [3] came to 34.7 ± 1.45%; at κ-opioid receptor [4], 94.2 ± 2.12%; on μ-opioid receptor [5], 112 ± 3.51%; at κ-opioid receptor [6] it was 93.3 ± 3.84%.

Regarding `O=C1O[C@@]23CC[C@]1(O)C[C@@]21CCN(CC2CC2)[C@@H]3Cc2ccc(O)cc21` [Compound 9, (4bR,6S,8aS,9R)-11-(cyclopropylmethyl)-3,6-dihydroxy-5,6,7,8,9,10-hexahydro-9,4b-(epiminoethano)-8a,6-(epoxymethano)phenanthren-15-one], the Ki on μ-opioid receptor [1] worked out at 10.1 ± 2.46 nM; in assay [2] it was 0.95 ± 0.29 nM. For the same molecule, the EC50 at μ-opioid receptor [3] was more than 20000 nM; at κ-opioid receptor [4], 54.7 ± 7.26 nM; on μ-opioid receptor [5] it was 9.17 ± 1.18 nM; at κ-opioid receptor [6], 5.23 ± 0.38 nM. The Emax at μ-opioid receptor [3] came out at 0.5 ± 0.5%; at κ-opioid receptor [4], 54 ± 3.89%; on μ-opioid receptor [5], 63.7 ± 5.21%; on κ-opioid receptor [6], 91.7 ± 4.84%.

With `N[C@]12CC[C@@]3(OC1)[C@H]1Cc4ccc(O)cc4[C@@]3(CCN1CC1CC1)C2` [Compound 17, (4bR,6S,8aS,9R)-6-amino-11-(cyclopropylmethyl)-5,6,7,8,9,10-hexahydro-9,4b-(epiminoethano)-8a,6-(epoxymethano)phenanthren-3-ol], the results for the inhibitory constant (Ki) (at μ-opioid receptor [1]; in assay [2]) were 0.79 ± 0.19 nM and 0.096 ± 0.026 nM, respectively. In addition, the EC50 was more than 20000 nM at μ-opioid receptor [3], 0.48 ± 0.02 nM at κ-opioid receptor [4], 0.65 ± 0.078 nM at μ-opioid receptor [5] and 0.3 ± 0.032 nM on κ-opioid receptor [6]. Also, the Emax came out at 0% on μ-opioid receptor [3], 75 ± 5.03% at κ-opioid receptor [4], 77 ± 1% on μ-opioid receptor [5] and 106 ± 6.84% on κ-opioid receptor [6].
